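Exposure lasted 48 hours, with cells grown in 96-well plates and compounds tested at five concentrations. The concentration for 50% growth inhibition is given as GI50. TGI: total growth inhibition.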
Key:
Test in all cases: NCI tumour cell line growth inhibition, 48 h
[1] = test system: ACHN renal
[2] = test system: UACC-62 melanoma
[3] = test system: SN12C renal
[4] = test system: KM12 colon
[5] = test system: NCI/ADR-RES ovarian
[6] = test system: TK-10 renal
[7] = test system: OVCAR-4 ovarian
[8] = test system: SF-295 CNS
[9] = test system: HT29 colon
[10] = test system: K-562 leukemia
[11] = test system: U251 CNS
[12] = test system: HCT-116 colon
[13] = test system: MCF7 breast
[14] = test system: PC-3 prostate
[15] = test system: A549 NSCLC
[16] = test system: SF-539 CNS
[17] = test system: HOP-62 NSCLC
[18] = test system: SNB-75 CNS
[19] = test system: OVCAR-8 ovarian
[20] = test system: NCI-H460 lung
[21] = test system: MDA-MB-231 breast
[22] = test system: CCRF-CEM leukemia
[23] = test system: SK-MEL-28 melanoma
[24] = test system: HL-60(TB) leukemia
[25] = test system: NCI-H23 lung
[26] = test system: RXF 393 renal
[27] = test system: MDA-MB-468 breast
[28] = test system: CAKI-1 renal
[29] = test system: OVCAR-5 ovarian
[30] = test system: SW-620 colon
[31] = test system: HS 578T breast
[32] = test system: MALME-3M melanoma
[33] = test system: NCI-H522 lung
[34] = test system: OVCAR-3 ovarian
[35] = test system: HCT-15 colon
[36] = test system: SK-MEL-2 melanoma
[37] = test system: COLO 205 colon
[38] = test system: IGROV1 ovarian
[39] = test system: EKVX NSCLC
[40] = test system: HCC-2998 colon
[41] = test system: 786-0 renal
[42] = test system: MOLT-4 leukemia
[43] = test system: SK-MEL-5 melanoma
[44] = test system: NCI-H226 lung
[45] = test system: BT-549 breast
[46] = test system: DU-145 prostate
[47] = test system: MDA-MB-435
[48] = test system: SF-268 CNS
[49] = test system: HOP-92 NSCLC
[50] = test system: RPMI-8226 leukemia
[51] = test system: SNB-19 CNS
[52] = test system: UO-31 renal
[53] = test system: A498 renal
[54] = test system: SR leukemia
[55] = test system: SK-OV-3 ovarian
[56] = test system: UACC-257 melanoma
[57] = test system: LOX IMVI melanoma
[58] = test system: M14 melanoma

Oc1ccc(F)c(Nc2nc(SCCN3CCOCC3)nc3c2cnn3CC(Cl)c2ccc(Br)cc2)c1 (stereo unspecified)
GI50 [1]: 3.48 µM | TGI [1]: 45.1 µM | GI50 [2]: 3.98 µM | TGI [2]: 15.6 µM | GI50 [3]: 3.37 µM | TGI [3]: 24.9 µM | GI50 [4]: 5.22 µM | TGI [4]: > 100 µM | GI50 [5]: 3.35 µM | TGI [5]: 29.1 µM | GI50 [6]: 21.1 µM | TGI [6]: 62.5 µM | GI50 [7]: 6.92 µM | TGI [7]: > 100 µM | GI50 [8]: 2.66 µM | TGI [8]: 11.1 µM | GI50 [9]: 3.33 µM | TGI [9]: 12.8 µM | GI50 [10]: 1.69 µM | TGI [10]: 14.5 µM | GI50 [11]: 5.19 µM | TGI [11]: 18.5 µM | GI50 [12]: 3.29 µM | TGI [12]: 16.2 µM | GI50 [13]: 2.87 µM | TGI [13]: 40.2 µM | GI50 [14]: 4.51 µM | TGI [14]: > 100 µM | GI50 [15]: 4.06 µM | TGI [15]: > 100 µM | GI50 [16]: 4.33 µM | TGI [16]: 16.3 µM | GI50 [17]: 5.08 µM | TGI [17]: 39 µM | GI50 [18]: 3.23 µM | TGI [18]: 22.3 µM | GI50 [19]: 4.27 µM | TGI [19]: 56.5 µM | GI50 [20]: 4.38 µM | TGI [20]: 65.4 µM | GI50 [21]: 2.8 µM | TGI [21]: 9.68 µM | GI50 [22]: 3.67 µM | TGI [22]: 54 µM | GI50 [23]: 4.44 µM | TGI [23]: 24.3 µM | GI50 [24]: 3.42 µM | TGI [24]: 33.6 µM | GI50 [25]: 4.74 µM | TGI [25]: 18.1 µM | GI50 [26]: 1.36 µM | TGI [26]: 4.34 µM | GI50 [27]: 2.44 µM | TGI [27]: 9.54 µM | GI50 [28]: 9.49 µM | TGI [28]: > 100 µM | GI50 [29]: 6.62 µM | TGI [29]: 39.5 µM | GI50 [30]: 7.38 µM | TGI [30]: > 100 µM | GI50 [31]: 2 µM | TGI [31]: 8.19 µM | GI50 [32]: 2.86 µM | TGI [32]: 11.5 µM | GI50 [33]: 4.6 µM | TGI [33]: 27.9 µM | GI50 [34]: 8.88 µM | TGI [34]: > 100 µM | GI50 [35]: 2.72 µM | TGI [35]: 20.5 µM | GI50 [36]: 10.2 µM | TGI [36]: 22.4 µM | GI50 [37]: 17 µM | TGI [37]: 34.7 µM | GI50 [38]: 3.7 µM | TGI [38]: 22.7 µM | GI50 [39]: 4.44 µM | TGI [39]: > 100 µM | GI50 [40]: 3.64 µM | TGI [40]: 15.4 µM | GI50 [41]: 5.02 µM | TGI [41]: 75.2 µM | GI50 [42]: 2.83 µM | TGI [42]: 14.6 µM | GI50 [43]: 4.05 µM | TGI [43]: 15.7 µM | GI50 [44]: 3.82 µM | TGI [44]: 43.7 µM | GI50 [45]: 7.46 µM | TGI [45]: 22.7 µM | GI50 [46]: 8.03 µM | TGI [46]: > 100 µM | GI50 [47]: 6.74 µM | TGI [47]: 24.3 µM | GI50 [48]: 6.23 µM | TGI [48]: > 100 µM | GI50 [49]: 4.53 µM | TGI [49]: > 100 µM | GI50 [50]: 4.31 µM | TGI [50]: 25.7 µM | GI50 [51]: 9.02 µM | TGI [51]: > 100 µM | GI50 [52]: 3.15 µM | TGI [52]: 55 µM | GI50 [53]: 14.5 µM | TGI [53]: 45 µM | GI50 [54]: 1.61 µM | TGI [54]: > 100 µM | GI50 [55]: 11 µM | TGI [55]: 84.6 µM | GI50 [56]: 5.48 µM | TGI [56]: 23 µM | GI50 [57]: 2.56 µM | TGI [57]: 10.5 µM | GI50 [58]: 4.18 µM | TGI [58]: 16.4 µM

From PubChem BioAssay (NCI)
